We go through one substance from patent publication US20200239587A1, “SENSITIZATION OF TUMORS TO THERAPIES THROUGH ENDOGLIN ANTAGONISM” (Cedars-Sinai Medical Center, priority 2016, published 2020).

The test system of experiment [1] is CD105 cell surface expression in human CW22Rv1 epithelia and mouse prostatic fibroblasts. Description: 3D co-culture, CD105 cell surface expression by FACS. It is filed as cell-based. The settings on record: hypoxia (2% O2), 72 hours; mouse prostatic fibroblasts and human prostate cancer epithelia. As for the experimental part: After 72 hours, the cells were dissociated and assessed by FACS for CD105 expression as shown.
A modified version of the 3D organotypic co-culture system was performed in a collagen matrix similar to that previously reported (Stark et al., 1999, J Invest Dermatol 112, 681-691). Collagen matrix gels were prepared by mixing five volumes of rat tail collagen I with two volumes of matrigel (NCI), one volume of 10× DMEM medium (GE Healthcare Life Sciences), and one volume of FBS (Atlanta Biologicals), Rv1 and primary mouse prostatic fibroblasts were combined in a 1:3 ratio. Nylon squares were coated with collagen and placed on metal grids in a 6-well plate. Gel plugs (150 μl) were transferred onto the nylon squares and media was added to the level of the nylon mesh. After 72 hours, the cells were dissociated from the matrix with collagenase and dispersed for FACS analysis.
FACS experiments were performed with eBiosciences antibodies: anti-human Stro-1-FITC (340105), anti-human CD90-PE (12-0909-42), anti-human CD105-APC (17-1057-41), anti-mouse CD105-APC (17-1051-82), anti-human CD117-PE-Cy7 (15-1178-41), anti-human Ki67-PECy7 (25-5699-41), and anti-human EpCAM-PE (12-9326-41). All events were acquired on a BD LSRII flow cytometer in the Cedars-Sinai Medical Center FACS core installed with BD FACSDiva software. Files were analyzed using FlowJo software v10.2. […]

The subject of experiment [2] is BMP dependent CD105 signaling in 22Rv1. Kind of experiment: BMP-stimulated phosphorylated-SMAD1/5 and ID1 expression. Type of experiment: cell-based, human. The settings on record: stimulated with 50 ng/mL BMP. As for the experimental part:
FIG. 18A) Cell surface CD105 expression was measured in PC3, C42b, and 22Rv1 72 hours after 4 Gy irradiation treatment by FACS analysis and compared to cells not irradiated (control). FIG. 18B) Cell surface CD105 expression was measured in cell lines following a dose range of irradiation (0, 2, 4, or 6 Gy). FIG. 18C) The durability of cell surface CD105 expression in 22Rv1 was determined 0, 0.5, 4, 8, 24, 48, 72, 120, and 168 hours following 4 Gy irradiation. CD105 cell surface expression fold change was normalized to levels expressed prior to irradiation. FIG. 18D) Western blot for phosphorylated-Smad1/5 was measured in CW22Rv1 cells in the presence or absence of serum starvation and treatment with 50 ng/ml BMP4 or 1 μg/ml TRC105. β-actin expression served as the loading control. FIG. 18E) Annexin-V expression was measured in 22Rv1 cells by FACS analysis 5 days following 4 Gy irradiation in the presence and absence of TRC105. FIG. 18F) Clonogenic assay was measured 10 days following irradiation of CW22Rv1 and C42b cells in a dose range of 0 to 6 Gy in the presence of 1 μg/ml IgG or TRC105. […]
Total RNA was extracted using the RNeasy kit (Qiagen). […] Quantitative RT-PCR was performed with 5 replicates using the Step One Real-Time PCR system (Applied Biosystems). […] For RNA-sequencing, Ion Proton AmpliSeq Transcriptome RNA Sequencing was performed achieving an average of 3M reads. […]

Another experiment relates to 22Rv1 cells. Description: COMET assay. It is filed as cell-based, human. The settings on record: irradiated. As for the experimental part: 22Rv1 were pre-treated with 1 μg/ml TRC105 24 hours prior to irradiation with 4 Gy. FIG. 22A) γ-H2AX or p53 bp were imunolocalized at 4, 24, and 48 hours post radiation. Foci per nuclei were quantified (n=100). FIG. 22B) Comet assay was performed 30 minutes and 24 hours following irradiation. The tail moment was quantified (n=50). FIG. 22C) Cell cycle analysis was performed on 22Rv1 at 0, 4, 8, and 24 hours post radiation in the presence of IgG or TRC105 (n=3) in 3 independent experiments. (***p<0.001, ****p<0.0001).

The subject of experiment [3] is SIRT1 transcription in CW22Rv1. Description: BMP dependent SIRT1 mRNA expression. The settings on record: 50 ng/ml BMP4, serum free; TRC105 0.05-10 μg/ml. Type of experiment: cell-based, human. As for the experimental part:
FIG. 20A) Western blot for SIRT1 expression measured in 22Rv1 cells following serum starvation and treatment with 50 ng/ml BMP4 for 4 hours. Phosphorylated Smad1/5 and β-actin was measured concurrently. FIG. 20B) SIRT1 mRNA expression was measured in CW22Rv1 under serum free conditions with 50 ng/ml BMP4, IgG in the context of increasing doses of TRC105 (0.05, 0.1, 0.5, 1, 5, or 10 μg/ml). SIRT1 mRNA expression was normalized to GAPDH and to serum treated control. FIG. 20C) Fold Change of SIRT1 mRNA in benign prostate and prostate cancer patients, obtained from R2-Genomics analysis is expressed (n=95). FIG. 20D) Immunohistochemical localization for SIRT1 expression in benign and prostate cancer tissues is indicated by arrows (Human Protein Atlas). […] FIG. 20E) SIRT1 mRNA expression was measured 72 hours following irradiation of 22Rv1 in a dose range of 0-6 Gy. FIG. 20F) SIRT1 mRNA expression was measured in a time course 0-72 hours following 4 Gy irradiation. […]
Total RNA was extracted using the RNeasy kit (Qiagen). […] Quantitative RT-PCR was performed with 5 replicates using the Step One Real-Time PCR system (Applied Biosystems). […] For RNA-sequencing, Ion Proton AmpliSeq Transcriptome RNA Sequencing was performed achieving an average of 3M reads. We mapped an average of 88% of the reads to the human genome with Torrent Suite version 4.4.2.

As to “TRC105: partially humanized monoclonal antibody that blocks BMP signaling; human-specific CD105 (endoglin) neutralizing antibody from Tracon Pharmaceuticals”, the “enzalutamide-induced CD105 cell surface expression” value in experiment [1] was “down regulated”. In addition, in experiment [2], the “minimum dose that effectively blocked phosphorylated-SMAD1/5 activation and expression of ID1” value came to 1 µg/mL. Moreover, the tail moment result is reported as “significant increase in tail moment” in the experiment on 22Rv1 cells (30 minutes post radiation, p<0.001) and “no significant difference” in the experiment on 22Rv1 cells (after 24 hours). For the same substance, in experiment [3], the “BMP dependent induction of SIRT1 transcription” value is “down-regulated when CD105 was antagonized with TRC105 in a dose dependent manner”.
